For data set [1], the system named is MDCK. The data set can be described thus: Efflux ratio of permeability from […] side of wild type MDCK2 cells. In kind it is ADME, cell-based, Canis lupus familiaris. The settings on record: dog.
Data set [2] relates to MDCK. As to the kind of experiment: Efflux ratio of permeability from […] side of MDCK2 cells over expressing human Pgp. Type of data set: ADME, cell-based, Canis lupus familiaris. The conditions noted are these: dog.
A short description of data set [3]: Intrinsic clearance in human liver microsomes. Type of data set: ADME, Microsome.
A further data set has as its target Beta-secretase 1 (Homo sapiens, UniProt P56817). As to the kind of experiment: Inhibition of BACE1.
In data set [4] the target is T1, Renin (Homo sapiens, UniProt P00797).
T1 sequence (P00797 whole entry): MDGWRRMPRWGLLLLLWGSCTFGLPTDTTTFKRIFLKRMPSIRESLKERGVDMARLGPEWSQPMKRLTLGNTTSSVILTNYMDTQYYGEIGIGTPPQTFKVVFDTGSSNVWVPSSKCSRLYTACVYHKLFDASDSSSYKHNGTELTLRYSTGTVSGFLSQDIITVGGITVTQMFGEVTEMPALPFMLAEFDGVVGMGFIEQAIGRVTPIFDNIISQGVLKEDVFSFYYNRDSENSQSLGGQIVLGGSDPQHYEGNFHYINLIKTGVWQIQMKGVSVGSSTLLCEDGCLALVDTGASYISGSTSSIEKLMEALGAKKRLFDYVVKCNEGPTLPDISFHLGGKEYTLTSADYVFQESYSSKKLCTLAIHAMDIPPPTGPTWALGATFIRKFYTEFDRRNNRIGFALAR
The data set can be described thus: Inhibition of renin.

A further data set addresses Cathepsin D (Homo sapiens, UniProt P07339). The data set can be described thus: Inhibition of cathepsin D.
In data set [5] the target is T1, Renin. The data set can be described thus: Inhibition of human plasma renin. Type of data set: cell-free.
The nature of data set [6]: Apparent permeability across wild type MDCK cells. Type of data set: ADME, cell-based, Canis lupus familiaris. The settings on record: dog.
The next data set concerns human Pgp. As to the kind of experiment: Apparent permeability across MDCK cells transfected with human Pgp. The conditions noted are these: dog, MDCK-MDR1. Type of data set: ADME, cell-based, Canis lupus familiaris.

Cathepsin D, sequence (P07339 65-162 limits assumed): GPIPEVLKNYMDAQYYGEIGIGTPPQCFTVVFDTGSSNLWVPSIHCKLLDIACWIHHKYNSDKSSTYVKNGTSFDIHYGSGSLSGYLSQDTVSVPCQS
Cathepsin D, sequence (P07339 169-412 limits assumed): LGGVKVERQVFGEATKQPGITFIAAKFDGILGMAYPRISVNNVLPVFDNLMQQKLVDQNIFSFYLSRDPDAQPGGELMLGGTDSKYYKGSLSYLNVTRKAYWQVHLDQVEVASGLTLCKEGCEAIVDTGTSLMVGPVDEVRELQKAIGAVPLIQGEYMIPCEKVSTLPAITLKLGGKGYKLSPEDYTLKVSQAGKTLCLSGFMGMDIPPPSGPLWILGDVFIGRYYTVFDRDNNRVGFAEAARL
Beta-secretase 1, sequence (P56817 whole entry): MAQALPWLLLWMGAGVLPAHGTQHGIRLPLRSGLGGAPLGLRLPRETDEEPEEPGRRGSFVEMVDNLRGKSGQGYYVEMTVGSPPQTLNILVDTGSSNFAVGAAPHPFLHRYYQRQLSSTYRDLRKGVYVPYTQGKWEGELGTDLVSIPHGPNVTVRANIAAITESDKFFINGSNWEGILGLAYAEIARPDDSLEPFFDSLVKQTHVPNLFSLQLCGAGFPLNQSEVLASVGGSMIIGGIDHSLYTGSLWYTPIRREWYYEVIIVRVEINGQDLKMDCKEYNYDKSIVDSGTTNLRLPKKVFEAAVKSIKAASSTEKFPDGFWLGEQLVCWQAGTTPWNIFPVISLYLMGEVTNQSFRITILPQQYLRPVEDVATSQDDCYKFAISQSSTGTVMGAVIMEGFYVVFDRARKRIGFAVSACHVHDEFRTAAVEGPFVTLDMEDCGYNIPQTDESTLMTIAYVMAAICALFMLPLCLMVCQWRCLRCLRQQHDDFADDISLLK

Consider `COCCCOc1cc(C[C@@H](C[C@H](N)[C@@H](O)C[C@H](C(=O)NCC(C)(C)C(N)=O)C(C)C)C(C)C)ccc1OC`, for which the Ratio in the data set with MDCK [1] came out at 0.7; in the data set with MDCK [2], 1.5.
Turning to `CC(C)[C@H](C[C@H](O)[C@H](COCc1ccccc1)NC(=O)c1cc(C(=O)N[C@H](C)c2ccccc2)cc(N(C)S(C)(=O)=O)c1)C(=O)N[C@H](C(=O)NCc1ccccc1)C(C)C`, the intrinsic clearance (microsomal CLint) in data set [3] is 260 µL/min/mg. The 50% inhibitory concentration (IC50) stood at 30 nM on Beta-secretase 1 and 38 nM at Renin [5] (read-out: IC50). The Ki on Renin [4] was 21 nM; on Cathepsin D, 3.3 nM.
In the case of `CC(C)CNC(=O)[C@@H](C[C@H](O)[C@@H]1COCc2cccc(c2)C(c2ccccc2)NC(=O)c2cc(cc(N(C)S(C)(=O)=O)c2)C(=O)N1)C(C)C` (some centres not stated), the Papp (in data set [6]; with human Pgp) was 0.1 ×10⁻⁶ cm/s in each case. For the same molecule, the IC50 came out at 3700 nM against Beta-secretase 1 and 56 nM against Renin [5]. In addition, affinity on Cathepsin D was put at a Ki of 200 nM.
Take `CNC(=O)[C@@H](C[C@H](O)[C@@H]1COCc2cccc(c2)C(c2ccccc2)NC(=O)c2cc(cc(N(C)S(C)(=O)=O)c2)C(=O)N1)C(C)C` (some centres not stated): the IC50 at Beta-secretase 1 was greater than 10000 nM. The inhibitory constant (Ki) at Renin [4] was 340 nM; at Cathepsin D, 1700 nM.
Molecule `COc1ccc(C2NC(=O)c3cc(cc(N(C)S(C)(=O)=O)c3)C(=O)N[C@H]([C@@H](O)C[C@H](C(=O)NCC(C)C)C(C)C)COCc3cccc2c3)cc1` (some centres not stated) gave a concentration for half-maximal inhibition (IC50) at Beta-secretase 1 of 3100 nM. Further, the values for the Ki on Renin [4] and on Cathepsin D were 130 nM and 760 nM, respectively.
The corresponding values for `COCCCC1NC(=O)c2cc(cc(N(C)S(C)(=O)=O)c2)C(=O)N[C@H]([C@@H](O)C[C@H](C(=O)NCC(C)C)C(C)C)COCc2cccc1c2` (some centres not stated) are 1900 nM, 450 nM and 460 nM.
As to `COCCOC1CCc2cc(cc(N(C)S(C)(=O)=O)c2)C(=O)N[C@H]([C@@H](O)C[C@H](C(=O)NCC(C)C)C(C)C)COCc2cccc1c2` (some centres not stated), the IC50 against Beta-secretase 1 was greater than 10000 nM. In addition, the Ki at Renin [4] and at Cathepsin D was greater than 5000 nM throughout.
The molecule `COCCOC1CCCc2cc(cc(N(C)S(C)(=O)=O)c2)C(=O)N[C@H]([C@@H](O)C[C@H](C(=O)NCC(C)C)C(C)C)COCc2cccc1c2` (some centres not stated) showed an IC50 against Beta-secretase 1 greater than 10000 nM. Also, the Ki at Renin [4] was 940 nM; on Cathepsin D, greater than 5000 nM.
